# Experiment: Aggregation of SeS2 on contact with aqueous medium
# Assay type: physicochemical
# Text: Contacting SeS2 with aqueous medium causes immediate and spontaneous aggregation, such that SeS2 particles with an average size of 5 to 10 microns will form large aggregates of 50 to 500 microns average size. […] Surfactants and various suspending agents are required to stabilize SeS2 suspension in liquid and semi-solid dosage forms in order to enable its topical application.
# Selenium disulfide forms agglomerates under aqueous conditions. Contacting selenium disulfide with aqueous medium causes immediate and spontaneous aggregation, causing selenium disulfide particles, with an initial average diameter of 5 to 10 μm, to aggregate into large clumps of 50 to 500 μm average diameter.
structure (smiles),measurement,setting,value
"S=[Se]=S [SeS2, selenium disulfide]",Average size of aggregates formed on contact with aqueous medium,SeS2 particles of initial average size 5 to 10 microns,50 to 500 microns
same,Average diameter of clumps formed on contact with aqueous medium,initial average diameter 5 to 10 μm,50 to 500 μm
